{"source": "paper PMC11667666", "about": "“Light-Driven Hybrid Nanoreactor Harnessing the Synergy of Carboxysomes and Organic Frameworks for Efficient Hydrogen Production” (ACS Catalysis, 2024)", "biological_target": "T1, recombinant α-carboxysome shell (Halothiobacillus neapolitanus, UniProt P45688+P45689+P45690)", "T1 construct": "gene csoS1A; whole self-assembled multi-paralog shell (about 90 nm) from pBAD-cso-2 in E. coli; CsoS1 hexamers, CsoS4 pentamers, CsoS2 linker; with Carboxysome shell vertex protein CsoS4A; Carboxysome shell vertex protein CsoS4B; Carboxysome assembly protein CsoS2", "T1 sequence (O85044 whole entry)": "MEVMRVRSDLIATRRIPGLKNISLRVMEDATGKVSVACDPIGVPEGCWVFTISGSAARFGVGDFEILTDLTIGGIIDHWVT", "T1 sequence (P45688 whole entry)": "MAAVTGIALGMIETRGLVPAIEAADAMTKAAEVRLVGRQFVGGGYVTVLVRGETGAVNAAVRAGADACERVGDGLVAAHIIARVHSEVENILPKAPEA", "T1 sequence (O85041 whole entry, further chain)": "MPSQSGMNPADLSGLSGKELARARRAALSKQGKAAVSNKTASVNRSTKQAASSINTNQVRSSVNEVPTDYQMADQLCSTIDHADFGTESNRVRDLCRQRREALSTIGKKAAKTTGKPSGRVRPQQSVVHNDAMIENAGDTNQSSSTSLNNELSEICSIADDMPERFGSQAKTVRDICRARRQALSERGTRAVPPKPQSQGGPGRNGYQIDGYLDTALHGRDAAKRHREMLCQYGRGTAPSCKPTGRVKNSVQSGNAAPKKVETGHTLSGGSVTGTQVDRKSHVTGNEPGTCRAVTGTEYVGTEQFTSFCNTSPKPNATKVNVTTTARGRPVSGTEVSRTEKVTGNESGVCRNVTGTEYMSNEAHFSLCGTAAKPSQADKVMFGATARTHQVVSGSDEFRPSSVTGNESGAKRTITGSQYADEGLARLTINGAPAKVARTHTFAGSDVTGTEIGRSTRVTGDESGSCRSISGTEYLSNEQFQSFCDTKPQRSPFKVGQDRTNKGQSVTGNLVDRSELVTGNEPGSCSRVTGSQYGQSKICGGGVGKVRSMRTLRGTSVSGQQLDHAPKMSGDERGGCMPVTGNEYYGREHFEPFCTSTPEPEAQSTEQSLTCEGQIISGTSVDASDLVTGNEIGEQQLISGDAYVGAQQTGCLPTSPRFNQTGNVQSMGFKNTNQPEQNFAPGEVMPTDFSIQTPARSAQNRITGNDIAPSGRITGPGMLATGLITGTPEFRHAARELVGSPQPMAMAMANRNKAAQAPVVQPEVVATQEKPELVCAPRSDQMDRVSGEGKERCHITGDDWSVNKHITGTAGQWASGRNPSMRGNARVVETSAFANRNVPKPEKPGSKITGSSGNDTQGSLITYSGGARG", "T1 sequence (O85043 whole entry, further chain)": "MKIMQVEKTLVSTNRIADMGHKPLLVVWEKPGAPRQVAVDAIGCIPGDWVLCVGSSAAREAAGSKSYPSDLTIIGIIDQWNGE", "T1 sequence (P45689 2-98)": "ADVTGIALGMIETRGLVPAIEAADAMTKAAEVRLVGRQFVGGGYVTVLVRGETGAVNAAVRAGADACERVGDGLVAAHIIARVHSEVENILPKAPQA", "T1 sequence (P45690 whole entry)": "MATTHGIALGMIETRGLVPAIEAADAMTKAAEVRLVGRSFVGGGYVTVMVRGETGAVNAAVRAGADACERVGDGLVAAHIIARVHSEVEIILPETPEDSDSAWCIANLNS", "test": "isothermal titration calorimetry", "assay_type": "binding", "conditions": "TBAP (50 μM) titrated into whole shell (3.75 μM); 20 mM Tris-HCl pH 8.0, 150 mM NaCl; multi-protein particle, site not resolved by ITC"}
{"smiles": "O=C(O)c1ccc(-c2cc(-c3ccc(C(=O)O)cc3)c3ccc4c(-c5ccc(C(=O)O)cc5)cc(-c5ccc(C(=O)O)cc5)c5ccc2c3c54)cc1", "note": "[TBAP, 1,3,6,8-tetra(4′-carboxyphenyl)pyrene]", "values": [{"measurement": "Kd", "value": 524, "unit": "nM"}]}
